Where “and” joins values, the source holds several entries; their conditions need not be identical. Identical values can stand only once. Entries after “also recorded” stand apart in the source; their conditions may differ.
Legend:
Type in all cases: in vivo, human
[1] = tested on: IL-17A; assay: Serum levels of biomarker IL-17A (single molecule counting sandwich immunoassay)
Procedure: (§1) The primary objective of the study was to assess the safety, tolerability, and clinical efficacy of Compound 1 at 200 mg BID via oral administration. Also evaluated was the clinical effect of Compound 1 as compared to placebo on the percent change in PASI and TLS scores from baseline to week 2 and week 4. The percent change in PASI score from baseline to week 4 was determined. TLS score was also assessed over the same time period. Also assessed was the effect of Compound 1 on biomarkers of psoriasis. Blood samples collected at predetermined time points were processed to quantify serum levels of biomarkers, including interleukin (IL)-17A, IL-17F, and IL-22 by high sensitivity methods. IL-17A, IL-17F and IL-22 are the main cytokines released by Th17 cells. Plasma levels of Compound 1 were measured to assess pharmacokinetics in the study population.
(§2) Two study interventions were used, Compound 1 and placebo. The Compound 1 intervention comprised 4× tablets of Compound 1 50 mg twice daily, i.e. 200 mg BID, for 4 weeks. The placebo intervention was 4× tablets of placebo twice daily for 4 weeks. Tablets were administered orally.
Blood samples were processed for analysis of IL-17A, IL-17F and IL-22 in serum samples by high sensitivity methods. Samples were collected according to the schedule of activity described above.
As indicated above, peripheral blood samples collected at predetermined time points were processed to quantify serum levels of biomarkers of psoriasis including IL-17A, IL-17F, and IL-22. Levels of IL-17A and IL-17F were quantified using a single molecule counting sandwich immunoassay (SMCxPro™, Millipore—see also Hwang et al., Methods (2019) 158:69-76). Levels of IL-22 were quantified using a single-molecule array ELISA (SIMOA™, Myriad RBM—see also Rissin et al., Anal Chem (2011) 83(6):2279-2285). Statistical analysis was based on geometric mean ratio to baseline; a two-sample t-test at significance alpha level of 5% was used for calculation of the p-values.

[2] = tested on: patients with mild to moderate psoriasis; assay: Clinical response by Target Lesion Severity (TLS) score, phase 1 placebo-controlled study; details: for Mean (±SEM) % improvement from baseline in TLS score / ΔLSm (±SE) (Compound 1 minus placebo) in % improvement from baseline in TLS score: 200 mg BID; for LSm (±SE) % improvement from baseline in TLS score: 200 mg BID oral, fed, average of 2 lesions; for LSm (±SE) % improvement from baseline in TLS score / ΔLSm (±SE) (Compound 1 minus placebo) in % improvement from baseline in TLS score: MMRM
Procedure: A double-blind, randomized, placebo-controlled phase 1 study was carried out in participants with mild to moderate psoriasis. Study participants were randomized to 200 mg twice a day (BID) of Compound 1 or placebo in 2:1 ratio (approximately 24 in the treatment group and 12 in the placebo group). The study comprised an up to 4-week screening period, and a 4-week treatment period with Compound 1 or placebo. An end-of-study visit was carried out 10±3 days after the last investigational medicinal product (IMP) administration.
as §1, §2
The interventions were used in two arms of the study. Arm 1 was the experimental arm and it involved participants receiving 200 mg of Compound BID for 4 weeks under fed conditions. Arm 2 was the placebo arm and it involved participants receiving the matching placebo tablets for 4 weeks under fed conditions.
TLS score, which is a validated tool for psoriasis severity assessment, was used to evaluate severity and to assess clinical efficacy. It consists of a sum score of 3 clinical severity parameters (scaling, erythema, plaque elevation/induration; each graded on a 5-point severity scale; 0=clear, 1=slight, 2=mild, 3=moderate, and 4=severe) with a sum score ranging between 0 and 12 points (see, e.g., Czamowicki et al., J Am Acad Dermatol. (2014) 71(5):954-959.e1). The following assessment was used, in which TLS score was calculated as the sum of A+B+C (adapted from Fredriksson et al., Dermatologica (1978) 157(4):238-244):
The TLS score was assessed at baseline, 2 weeks and 4 weeks. Table 2 below presents the Least Square means (LSm)±Standard Error (SE) for each treatment and the Least Squares means difference (ΔLSm; Compound 1 minus placebo)±Standard Error (SE) with 90% confidence interval (CI) in percentage improvement from baseline in the TLS score (calculated as the average of the TLS score values collected from 2 lesions) at week 2 and week 4.
The results in Table 2 were obtained using the Mixed Model for Repeated Measures (MMRM).
Table 3 below presents the mean (±SEM) percentage improvement from baseline in the TLS score (calculated as the average of the TLS score values collected from 2 lesions) at week 2 and week 4 in the patient population with PASI<10 (mild) or PASI≥10 (moderate) at baseline.
The results in Table 3 come from standard descriptive analysis, ^(1)N=3, ^(2)N=15

[3] = Plasma levels of Compound 1 in the study population (pharmacokinetics); details: 200 mg BID oral, fed
Procedure: as §1, §2
The interventions were used in two arms of the study. Arm 1 was the experimental arm and it involved participants receiving 200 mg of Compound BID for 4 weeks under fed conditions. […]

Q: What does the source list for `CN1C(=O)c2cccc(OC(F)F)c2[C@H]2C[C@@H]1c1nc3ccc(-c4cnc(C5(N)CCC5)nc4)cc3n12` [Compound 1, (7R,14R)-11-[2-(1-aminocyclobutyl)pyrimidin-5-yl]-1-(difluoromethoxy)-6-methyl-6,7-dihydro-7,14-methanobenzimidazo[1,2-b][2,5]benzodiazocin-5(14H)-one]?
A: Serum level of IL-17A (in words) ([1]; after treatment for 4 weeks): substantially decreased; Serum level of IL-17A, geometric mean (geometric SE) ([1]; baseline (before treatment)): 0.62 (1.15) pg/mL; Serum level of IL-17A, geometric mean (geometric SE) ([1]; week 2, 200 mg BID): 0.56 (1.13) pg/mL; Serum level of IL-17A, geometric mean (geometric SE) ([1]; week 4, 200 mg BID): 0.45 (1.14) pg/mL; Mean (±SEM) % improvement from baseline in TLS score ([2]; PASI < 10 (mild) population, week 2, N = 16, SEM 3.61): 20.9%; Mean (±SEM) % improvement from baseline in TLS score ([2]; PASI < 10 (mild) population, week 4, N = 15, SEM 6.32): 37.0%; Mean (±SEM) % improvement from baseline in TLS score ([2]; PASI ≥ 10 (moderate) population, week 2, N = 9): 10.9% and 10.9 (6.20) %; Mean (±SEM) % improvement from baseline in TLS score ([2]; PASI ≥ 10 (moderate) population, week 4, N = 9): 39.7% and 39.7 (4.03) %; LSm (±SE) % improvement from baseline in TLS score ([2]; week 2, vs placebo 6.29%, p=0.032): 17.06% and 17.06 (3.13) %; ΔLSm (±SE) (Compound 1 minus placebo) in % improvement from baseline in TLS score ([2]; week 2, 90% CI 1.29 to 20.26): 10.77% and 10.77 (5.61) %; LSm (±SE) % improvement from baseline in TLS score ([2]; week 4, vs placebo 20.44%, p=0.012): 38.18% and 38.18 (4.33) %; ΔLSm (±SE) (Compound 1 minus placebo) in % improvement from baseline in TLS score ([2]; week 4, 90% CI 4.98 to 30.49): 17.7% and 17.74% and 17.74 (7.54) %; mean reduction in TLS score from baseline ([2]; week 4, FIG. 1, placebo around 1.25 points): around 2.5 points; Mean pre-dose plasma levels / steady state (in words) ([3]; Day 8 through Day 29): steady state was achieved within the first week and maintained until the end of the treatment; Mean pre-dose and post-dose plasma concentrations (in words) ([3]; compared with previous study in healthy participants): consistent with analogous values observed at the same dose in a previous study in healthy participants; also recorded: consistent with pharmacokinetic data previously obtained in healthy participants

Source: US20260294906A1, “TREATING PSORIASIS USING A SMALL MOLECULE INHIBITOR OF TUMOR NECROSIS FACTOR ALPHA” (SANOFI, priority 2023, published 2026)
